The test has as its system monoclonal catalytic antibody 1E9 (reductively methylated), secreted by hybridoma 1E9, ATCC HB 10261. In words: Antibody-catalyzed Diels-Alder [4+2] cycloaddition/fragmentation reaction between TCTD and N-ethylmaleimide. Type of test: biochemical, mouse. The source says: Because TCTD reacts with lysine residues on the surface of the immunoglobulins, it was necessary to reduce the nucleophilicity of the amino groups by exhaustive reductive methylation [Jentoft et al., J. Biol. Chem., 254:4359 (1979)]. […] Chemical modification of immunoglobulins in this way is likely to be of general value, as it will permit reactive molecules like epoxides, Michael acceptors or other alkylating agents to be employed as substrates for catalytic antibodies.
The methylated antibodies were assayed at 25 degrees C. for their ability to promote the Diels-Alder [4+2] cycloaddition/fragmentation reaction between TCTD and N-ethylmaleimide (NEM) in aqueous buffer (20 mM MES, 100 mM NaCl, pH 6.0) containing 10 percent acetonitrile. Cycloadditions were followed by monitoring the disappearance of TCTD at 330 nm or by analytical reverse-phase HPLC. HPLC kinetic assays were performed on a Vydac C-18 218-TP-510 reverse phase column (10 mm×25 cm, 2 mL/min, gradient elution from 100 percent H2 O to 60:40 CH3 CN:H2 O in 20 minutes, then 5 minutes at the latter solvent composition) using acetophenone as an internal standard.

For the compound `CCN1C(=O)C=CC1=O` [NEM, N-ethylmaleimide], the apparent kcat (NEM concentration varied, 0.61 mM TCTD held constant, 25 degrees C, 20 mM MES, 100 mM NaCl, pH 6.0, 10 percent acetonitrile) was 0.0717 ± 0.005 s⁻¹. Further, the Michaelis constant (Km) (NEM concentration varied, 0.61 mM TCTD held constant, 25 degrees C, 20 mM MES, 100 mM NaCl, pH 6.0, 10 percent acetonitrile, read-out: apparent (Km)NEM) was found to be 21 ± 4 mM.
Turning to `CCN1C(=O)C2C(C1=O)C1(Cl)C(Cl)=C(Cl)C2(Cl)C1(Cl)Cl` (stereo not drawn) [Compound 3], the “inhibition of the catalyzed reaction” value (preincubation of the antibody with an equimolar amount of the inhibitor) was “stopped the oatalyzed reaction completely”.

(Values after US5208152A, “Catalysts of Diels-Alder reactions, methods and catalysts therefor” (The Scripps Research Institute, priority 1992, dated 1993).)
